Patent EP0401715B1, “Aminoketone compounds” (priority 1989, dated 1990)
Structures can show the parent of a compound that is named as a salt. Where two headings read alike, the source gives them in different places.

Molecular target: T1, cholinesterase (Rattus norvegicus, UniProt P37136)
T1 construct: The S₁ fraction of a cerebral cortex homogenate from male Wistar rats was used as the cholinesterase source; from tissue; host or cells: S1 fraction of cerebral cortex homogenate, male Wistar rats
T1 sequence (P37136 32-614): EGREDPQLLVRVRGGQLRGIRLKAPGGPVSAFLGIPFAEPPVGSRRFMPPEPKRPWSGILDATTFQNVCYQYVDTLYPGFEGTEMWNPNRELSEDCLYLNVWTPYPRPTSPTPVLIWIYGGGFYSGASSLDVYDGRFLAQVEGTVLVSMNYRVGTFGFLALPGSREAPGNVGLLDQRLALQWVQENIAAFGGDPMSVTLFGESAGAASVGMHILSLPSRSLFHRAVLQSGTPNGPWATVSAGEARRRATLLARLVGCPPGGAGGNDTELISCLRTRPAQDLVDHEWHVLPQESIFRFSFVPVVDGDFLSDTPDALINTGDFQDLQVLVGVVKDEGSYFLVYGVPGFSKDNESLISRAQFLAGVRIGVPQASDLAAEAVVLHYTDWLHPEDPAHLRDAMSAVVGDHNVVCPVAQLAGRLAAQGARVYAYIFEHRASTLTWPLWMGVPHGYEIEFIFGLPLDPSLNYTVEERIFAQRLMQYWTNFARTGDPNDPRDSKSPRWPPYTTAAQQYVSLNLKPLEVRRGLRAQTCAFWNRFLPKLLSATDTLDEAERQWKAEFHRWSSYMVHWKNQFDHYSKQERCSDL
Test: Anticholinesterase activity using (acetyl-[³H])-acetylcholine as substrate
Assay type: biochemical, male Wistar rats
Description: The anticholinesterase activity of the compound of the invention was evaluated using (acetyl-[³H])-acetylcholine. The S₁ fraction of a cerebral cortex homogenate from male Wistar rats was used as the cholinesterase source, (acetyl-[³H])-acetylcholine as the substrate and the test compound of the invention as the test substance. The incubation was carried out for 30 minutes and after the reaction was terminated, the system was shaken with a toluene scintillator to thereby transfer [³H]-acetic acid into the toluene layer. The radioactivity in the toluene layer was then measured with a liquid scintillation counter to estimate the anticholinesterase activity of the test compound.

## CCN(CCCCCC(=O)c1ccc(N2CCCC2)cc1)Cc1ccccc1 [Example 4-2, N-Ethyl-N-(phenylmethyl)-N-[6-(4-pyrrolidinophenyl)-6-oxohexyl]amine fumarate]
  IC50: 310 nM

## CCN(CCCCCC(=O)c1ccc(N2CCCC2)cc1)Cc1ccccc1OC [Example 4-3, N-Ethyl-N-[(2-methoxyphenyl)methyl]-N-[6-(4-pyrrolidinophenyl)-6-oxohexyl]amine fumarate]
S₁ fraction of a cerebral cortex homogenate from male Wistar rats as cholinesterase source, incubation 30 minutes, read-out: Anticholinesterase activity, IC₅₀
  IC50: 50 nM
